Target: T1, FLK-1 receptor (Mus musculus, UniProt P35918)
T1 construct: expressed in transfected cells; host or cells: NIH3T3 C7#3
Assay: FLK-1 ELISA (kinase activity of the FLK-1 receptor in FLK-1/NIH3T3 cells, VEGF stimulated)
Format: cell-based
Set-up: concentration or dose not given beside the values
Procedure, shortened: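 An ELISA using affinity-purified rabbit anti-FLK-1 antiserum on anti-rabbit IgG-coated plates measured VEGF-stimulated FLK-1 kinase activity. NIH3T3 C7#3 cells carrying FLK-1 were serum-starved (0.1% FBS) overnight, then exposed to compound (final 1:200 dilution, 0.5% DMSO) for two hours at 37 °C.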

T1 sequence (P35918 20-1345): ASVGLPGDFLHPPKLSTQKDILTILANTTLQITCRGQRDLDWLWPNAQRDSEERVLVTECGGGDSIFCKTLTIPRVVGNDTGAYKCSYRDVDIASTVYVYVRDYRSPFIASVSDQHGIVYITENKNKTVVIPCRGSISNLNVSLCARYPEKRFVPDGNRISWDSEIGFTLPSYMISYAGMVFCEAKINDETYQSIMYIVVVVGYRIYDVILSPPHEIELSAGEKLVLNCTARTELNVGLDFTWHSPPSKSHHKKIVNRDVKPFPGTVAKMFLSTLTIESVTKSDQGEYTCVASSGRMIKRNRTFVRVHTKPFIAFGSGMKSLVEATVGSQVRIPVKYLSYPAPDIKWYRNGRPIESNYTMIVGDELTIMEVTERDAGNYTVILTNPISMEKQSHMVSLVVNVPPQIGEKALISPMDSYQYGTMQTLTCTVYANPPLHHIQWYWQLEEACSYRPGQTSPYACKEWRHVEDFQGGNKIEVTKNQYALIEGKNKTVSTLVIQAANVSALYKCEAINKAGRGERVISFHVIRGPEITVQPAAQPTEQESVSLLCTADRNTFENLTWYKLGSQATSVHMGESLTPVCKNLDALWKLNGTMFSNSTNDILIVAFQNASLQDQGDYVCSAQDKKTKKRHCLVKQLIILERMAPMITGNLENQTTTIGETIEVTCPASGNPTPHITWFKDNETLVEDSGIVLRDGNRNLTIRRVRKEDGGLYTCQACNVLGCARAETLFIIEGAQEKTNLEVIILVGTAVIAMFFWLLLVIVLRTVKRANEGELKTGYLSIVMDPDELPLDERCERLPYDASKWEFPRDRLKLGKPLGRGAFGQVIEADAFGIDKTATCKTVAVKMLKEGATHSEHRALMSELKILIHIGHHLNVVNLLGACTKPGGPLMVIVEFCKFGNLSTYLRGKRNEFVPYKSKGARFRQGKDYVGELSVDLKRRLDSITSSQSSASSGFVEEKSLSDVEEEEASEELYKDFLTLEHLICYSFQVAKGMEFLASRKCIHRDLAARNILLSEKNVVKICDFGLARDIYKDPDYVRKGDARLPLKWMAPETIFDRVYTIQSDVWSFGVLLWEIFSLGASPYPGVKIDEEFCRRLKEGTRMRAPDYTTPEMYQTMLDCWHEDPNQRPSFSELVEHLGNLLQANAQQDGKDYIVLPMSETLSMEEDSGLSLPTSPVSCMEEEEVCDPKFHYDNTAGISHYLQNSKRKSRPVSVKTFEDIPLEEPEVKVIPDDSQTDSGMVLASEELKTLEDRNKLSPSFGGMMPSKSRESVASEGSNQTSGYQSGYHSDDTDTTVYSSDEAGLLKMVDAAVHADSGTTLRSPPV

Structure (SMILES)	Fik Kinase %Inhibition [%]
O=C1Nc2ccc(CCCl)cc2C1=Cc1csc([N+](=O)[O-])c1 [10722/G09]	6.1
O=C1Nc2ccc(S(=O)(=O)Nc3ccc(C(F)(F)F)cc3)cc2C1=Cc1cccs1 [10717/E03]	19.0
O=C1Nc2ccc(CCCl)cc2C1=Cc1ccc(F)cc1F [10722/G06]	7.4
CC(C)(C)c1cc(C=C2C(=O)Nc3ccc(CCCl)cc32)cc([N+](=O)[O-])c1O [10722/G02]	15.1
Cc1cc(C=C2C(=O)Nc3ccc(CCCl)cc32)ccc1O [10723/G06]	14.1
CC(C)(C)c1cc(C=C2C(=O)Nc3ccc(CCCl)cc32)cc(Cl)c1O [10722/G08]	8.2
O=C1Nc2ccc(S(=O)(=O)N3CCOCC3)cc2C1=Cc1ccc(O)c(O)c1O [10723/F02]	10.3
Cc1c(Br)ccc2c1C(=Cc1cccc(Br)c1)C(=O)N2 [10723/C10]	9.5
CC(C)(C)c1cc(C=C2C(=O)Nc3ccc(I)cc32)c(O)c(C(C)(C)C)c1 [10723/B11]	6.3
Cc1cc(C=C2C(=O)Nc3ccc(CCCl)cc32)cc(C)c1O [10722/G07]	8.0
Cc1cc(C=C2C(=O)Nc3ccc(I)cc32)ccc1O [10723/B06]	31.8
Cc1cc(C=C2C(=O)Nc3c(Br)cc(Br)cc32)ccc1O [10723/A06]	8.6
O=C1Nc2ccc(S(=O)(=O)N3CCOCC3)cc2C1=Cc1cc(O)c(O)c(Br)c1 [10723/F04]	12.3
O=C1Nc2c(Br)cc(Br)cc2C1=Cc1ccc(O)c(O)c1O [10723/A02]	-5.5
Cc1c(Br)ccc2c1C(=Cc1ccc(O)c(O)c1O)C(=O)N2 [10723/C02]	9.6
O=C1Nc2c(Br)cc(Br)cc2C1=Cc1cccc(Br)c1 [10723/A10]	-3.1
O=C1Nc2ccc(S(=O)(=O)Nc3ccc(C(F)(F)F)cc3)cc2C1=Cc1cc(O)c(O)c(Br)c1 [10723/E04]	30.7
O=C1Nc2ccc(CCCl)cc2C1=Cc1ccc(C(F)(F)F)cc1 [10722/G11]	0.6
Cc1c(Br)ccc2c1C(=Cc1ccc(O)cc1O)C(=O)N2 [10723/C08]	-35.5
COc1cccc(C=C2C(=O)Nc3ccc(I)cc32)c1O [10723/B03]	7.1
O=C1Nc2c(Br)cc(Br)cc2C1=Cc1cc(O)c(O)c(Br)c1 [10723/A04]	27.2
Cc1cc(C=C2C(=O)Nc3ccc(S(=O)(=O)Nc4ccc(C(F)(F)F)cc4)cc32)ccc1O [10723/E06]	19.3
O=C1Nc2ccc(CCCl)cc2C1=Cc1ccc(O)cc1O [10723/G08]	-22.9
COc1cccc(C=C2C(=O)Nc3ccc(Br)c(C)c32)c1O [10723/C03]	-3.1
CNS(=O)(=O)c1ccc2c(c1)C(=Cc1cc(O)c(O)c(Br)c1)C(=O)N2 [10723/D04]	15.2
CNS(=O)(=O)c1ccc2c(c1)C(=Cc1ccccc1Br)C(=O)N2 [10723/D07]	15.8
COc1ccc(C=C2C(=O)Nc3c(Br)cc(Br)cc32)c(O)c1 [10723/A09]	-1.0

Structure (SMILES)	Fik Kinase %Inhibition [%]
COc1cccc(C=C2C(=O)Nc3ccc(S(=O)(=O)Nc4ccc(C(F)(F)F)cc4)cc32)c1O [10723/E03]	8.7
O=C1Nc2ccc(S(=O)(=O)Nc3ccc(C(F)(F)F)cc3)cc2C1=Cc1c[nH]c2ccccc12 [10717/E06]	7.5
CC(=O)Oc1ccc(C=C2C(=O)Nc3ccc(Br)c(C)c32)cc1OC(C)=O [10723/C05]	5.6
O=C1Nc2ccc(S(=O)(=O)Nc3ccc(C(F)(F)F)cc3)cc2C1=Cc1ccc(O)c(O)c1O [10723/E02]	8.1
O=C1Nc2ccc(I)cc2C1=Cc1ccc(O)c(O)c1O [10723/B02]	-0.3
CC(=O)Oc1ccc(C=C2C(=O)Nc3ccc(S(=O)(=O)N4CCOCC4)cc32)cc1OC(C)=O [10723/F05]	-6.4
O=C1Nc2c(Br)cc(Br)cc2C1=Cc1ccc(O)cc1O [10723/A08]	-12.9
O=C1Nc2ccc(CCCl)cc2C1=Cc1ccc(C(=O)O)cc1 [10722/G05]	10.8
CC(=O)Oc1ccc(C=C2C(=O)Nc3c(Br)cc(Br)cc32)cc1OC(C)=O [10723/A05]	-17.8
O=C1Nc2ccc(S(=O)(=O)Nc3ccc(C(F)(F)F)cc3)cc2C1=Cc1ccccc1Br [10723/E07]	17.4
CNS(=O)(=O)c1ccc2c(c1)C(=Cc1ccc(O)cc1O)C(=O)N2 [10723/D08]	-4.5
O=C1Nc2ccc(CCCl)cc2C1=Cc1ccccc1Br [10723/G07]	14.2
O=C1Nc2ccc(S(=O)(=O)Nc3ccc(C(F)(F)F)cc3)cc2C1=Cc1ccc(Br)cc1 [10717/E08]	13.2
COc1ccc(C=C2C(=O)Nc3ccc(I)cc32)c(O)c1 [10723/B09]	2.7
CNS(=O)(=O)c1ccc2c(c1)C(=Cc1cc(C(C)(C)C)cc(C(C)(C)C)c1O)C(=O)N2 [10723/D11]	14.8
O=C1Nc2ccc(S(=O)(=O)Nc3ccc(C(F)(F)F)cc3)cc2C1=Cc1ccc(F)cc1 [10717/E05]	13.2
Cn1cccc1C=C1C(=O)Nc2ccc(S(=O)(=O)Nc3ccc(C(F)(F)F)cc3)cc21 [10717/E04]	6.1
Cc1cc(C=C2C(=O)Nc3ccc(Br)c(C)c32)ccc1O [10723/C06]	17.8
CNS(=O)(=O)c1ccc2c(c1)C(=Cc1[nH]c(C)c(Br)c1Br)C(=O)N2 [10717/D11]	11.6
O=C1Nc2ccc(CCCl)cc2C1=Cc1ccc([N+](=O)[O-])s1 [10722/G04]	7.2
Cc1c(Br)ccc2c1C(=Cc1ccccc1Br)C(=O)N2 [10723/C07]	20.9
COc1ccc(C=C2C(=O)Nc3ccc(S(=O)(=O)Nc4ccc(C(F)(F)F)cc4)cc32)c(O)c1 [10723/E09]	7.9
CNS(=O)(=O)c1ccc2c(c1)C(=Cc1cccc(OC)c1O)C(=O)N2 [10723/D03]	-14.7
CCOc1ccccc1C=C1C(=O)Nc2ccc(S(=O)(=O)Nc3ccc(C(F)(F)F)cc3)cc21 [10717/E02]	17.9
CC(=O)Oc1ccc(C=C2C(=O)Nc3ccc(S(=O)(=O)Nc4ccc(C(F)(F)F)cc4)cc32)cc1OC(C)=O [10723/E05]	8.9
COc1ccc(C=C2C(=O)Nc3ccc(Br)c(C)c32)c(O)c1 [10723/C09]	-22.3
CC(C)(C)c1cc(C=C2C(=O)Nc3ccc(S(=O)(=O)Nc4ccc(C(F)(F)F)cc4)cc32)c(O)c(C(C)(C)C)c1 [10723/E11]	8.9

Structure (SMILES)	Fik Kinase %Inhibition [%]
Cc1c(Br)ccc2c1C(=Cc1cc(C(C)(C)C)cc(C(C)(C)C)c1O)C(=O)N2 [10723/C11]	9.5
O=C1Nc2ccc(CCCl)cc2C1=Cc1c(O)cc(O)cc1O [10722/G03]	5.3
CC(=O)Oc1ccc(C=C2C(=O)Nc3ccc(CCCl)cc32)cc1OC(C)=O [10723/G05]	-9.4
CC(=O)Oc1ccc(C=C2C(=O)Nc3ccc(I)cc32)cc1OC(C)=O [10723/B05]	-15.4
O=C1Nc2ccc(I)cc2C1=Cc1cccc(Br)c1 [10723/B10]	5.8
O=C1Nc2ccc(I)cc2C1=Cc1ccccc1Br [10723/B07]	6.5
O=C1Nc2ccc(S(=O)(=O)Nc3ccc(C(F)(F)F)cc3)cc2C1=Cc1ccc(O)cc1O [10723/E08]	-0.4
O=C1Nc2c(Br)cc(Br)cc2C1=Cc1ccccc1Br [10723/A07]	-6.1
COc1cccc(C=C2C(=O)Nc3ccc(CCCl)cc32)c1O [10723/G03]	4.3
O=C1Nc2ccc(I)cc2C1=Cc1cc(O)c(O)c(Br)c1 [10723/B04]	18.7
COc1cccc(C=C2C(=O)Nc3ccc(S(=O)(=O)N4CCOCC4)cc32)c1O [10723/F03]	4.4
COc1ccc(C=C2C(=O)Nc3ccc(CCCl)cc32)c(O)c1 [10723/G09]	-1.8
CNS(=O)(=O)c1ccc2c(c1)C(=Cc1ccc(O)c(O)c1O)C(=O)N2 [10723/D02]	2.0
O=C1Nc2ccc(CCCl)cc2C1=Cc1ccc(O)c(O)c1O [10723/G02]	-1.6
COc1cccc(C=C2C(=O)Nc3c(Br)cc(Br)cc32)c1O [10723/A03]	1.2
CNS(=O)(=O)c1ccc2c(c1)C(=Cc1cccc(Br)c1)C(=O)N2 [10723/D10]	6.5
O=C1Nc2ccc(I)cc2C1=Cc1ccc(O)cc1O [10723/B08]	1.0
CNS(=O)(=O)c1ccc2c(c1)C(=Cc1ccc(O)c(C)c1)C(=O)N2 [10723/D06]	17.6
Cc1ccc(C=C2C(=O)Nc3ccc(S(=O)(=O)Nc4ccc(C(F)(F)F)cc4)cc32)s1 [10717/E07]	15.3
CC(C)(C)c1cc(C=C2C(=O)Nc3c(Br)cc(Br)cc32)c(O)c(C(C)(C)C)c1 [10723/A11]	42.9
Cc1c(Br)ccc2c1C(=Cc1cc(O)c(O)c(Br)c1)C(=O)N2 [10723/C04]	8.8
O=C1Nc2ccc(S(=O)(=O)Nc3ccc(C(F)(F)F)cc3)cc2C1=Cc1cccc(Br)c1 [10723/E10]	5.2
CCCCN(CCCC)c1ccc(C=C2C(=O)Nc3ccc(CCCl)cc32)cc1 [10722/G10]	-1.7
O=C1Nc2ccc(CCCl)cc2C1=Cc1cc(O)c(O)c(Br)c1 [10723/G04]	8.7
CNS(=O)(=O)c1ccc2c(c1)C(=Cc1ccc(OC)cc1O)C(=O)N2 [10723/D09]	50.4
CNS(=O)(=O)c1ccc2c(c1)C(=Cc1ccc(OC(C)=O)c(OC(C)=O)c1)C(=O)N2 [10723/D05]	-6.1

Source: patent publication EP1247803A2, “Indolinone compounds suitable for modulation of protein kinases” (Sugen, Inc., priority 1996, dated 1998)
